In assay [1] the test system is M327I- and T349M-mutant OCI-AML3 cells. Put plainly: dose-response assay, viable cell counts by flow cytometry. The class given is cell-based, human. The procedure:
(§1) MV4;11 and OCI-AML3 cell lines were passaged 24 h prior to nucleofection. The guide RNA (150 μmol) (sequence: 5′-[…]-3′) was added to Alt-R S.p. HiFi Cas9 nuclease (Integrated DNA Technologies) (125 μmol) followed by an incubation at room temperature (RT) for 20 min to allow formation of ribonucleoprotein (RNP) complexes. 2×10^5 cells were sedimented at 200 g for 10 min at RT, washed with PBS and resuspended in the SG Cell Line Nucleofector™ Solution (Lonza). Cells, Alt-R™ Cas9 Electroporation Enhancer (Lonza) (120 μmol) and the HDR donor oligonucleotide containing the MEN1-M327I mutation as well as a silent mutation at the protospacer adjacent motif (PAM) site (120 μmol) (sequence:5′-[…]-3′) were added to the RNP complex. For wildtype (WT) control, phosphate buffered saline (PBS) (Gibco™, Fisher Scientific) was added to the resuspended cells. Nucleofection was performed using a 16-well 20 μl Nucleocuvette™ stripe (Lonza) in a 4D-Nucleofector™ X Unit (Lonza) (program FF-100). Cells were incubated overnight in RPMI-1640+10% FCS+1% P/S containing 1 μM Alt-R™ HDR enhancer V2 (Lonza) (or DMSO for WT control). The following day, the medium was replaced by RPMI-1640+10% FBS+1% P/S. Single clones were selected in methylcellulose (MethoCult™ M3234, Stemcell™ Technologies) supplemented with 10% RPMI-1640, 10% FBS, 1% P/S and 25 nM SNDX-5613 (or DMSO for WT control), starting 3 days after nucleofection, and expanded in RPMI-1640+10% FCS+1% P/S supplemented with 25 nM SNDX-5613 (or DMSO for WT control). For the in vitro clonal selection assay of bulk nucleofected cells over time, 5×10^3 cells (3 replicates per condition) were seeded in RPMI-1640+10% FBS+1% P/S supplemented with 50 nM SNDX-5613 (or DMSO for WT control) 3 days after nucleofection. Cells were replated in fresh medium+drug every 3 days and viable cells were counted using the LSRFortessa™ (BD Biosciences) flow cytometer. Cumulative cell growth was calculated over 28 days. At each timepoint, cell pellets were frozen and genomic DNA was extracted subsequently using the DNeasy Blood and Tissue Kit™ (QIAGEN). Digital droplet-based PCR was performed from the genomic DNA to assess editing efficiency in the bulk cells over time. To analyze HDR efficiency in single cell clones, genomic DNA was PCR amplified using the Q5 High-Fidelity 2× Master Mix™ (New England BioLabs) and primers (forward: 5′-[…]-3′; reverse: 5′-[…]-3′), and the resulting 641 bp fragment containing the Cas9 cut site was gel-purified using the QIAquick Gel Extraction Kit™ (QIAGEN). Sanger sequencing was used to analyze HDR efficiency (primer 5′-[…]-3′).
(§2) To determine Menin-inhibitor responses of MOLM13, MV4;11 or OCI-AML3 cell lines expressing MEN1 mutants, 3×10^3 cells were plated per well in a non-tissue culture treated 96-well plate. The Menin-inhibitors were titrated on these cells in the following dose-range: DMSO, 3.9 nM, 7.813 nM, 15.625 nM, […], 62.5 nM, 125 nM, 250 nM, 500 nM, 1000 nM. Cells were treated in triplicates on each plate and the experiment was repeated 4 times. After 6 days, cells were split 1:7 and counts of viable cells in each well were determined after 10 d of treatment by flow cytometry (LSRFortessa™ with High-throughput sampler (HTS), BD Biosciences). Relative cell counts were calculated as % of DMSO control. The average of each triplicate was calculated and the mean of all replicates was plotted. Error bars represent the standard error of means (SEM).
On the technique in general: In flow cytometry, cells or beads pass a laser one at a time.

In assay [2] the test system is M327I- and T349M-mutant MV4;11 cells. The description is as above. The assay is classed as cell-based, human. As for the experimental part:
as §1, §2

Assay [3] concerns CRISPR-Cas9 M327I-edited MV4;11 and OCI-AML3 cells. Briefly: in vitro clonal selection assay, growth of bulk cell populations. The class given is cell-based, human. Particulars: 50 nM. As for the experimental part: (§3) MV4;11 and OCI-AML3 cell lines were passaged 24 h prior to nucleofection. The guide RNA (150 μmol) (sequence: 5′-[…]-3′) was added to Alt-R S.p. HiFi Cas9 nuclease (Integrated DNA Technologies) (125 μmol) followed by an incubation at room temperature (RT) for 20 min to allow formation of ribonucleoprotein (RNP) complexes. 2×10^5 cells were sedimented at 200 g for 10 min at RT, washed with PBS and resuspended in the SG Cell Line Nucleofector™ Solution (Lonza). Cells, Alt-R™ Cas9 Electroporation Enhancer (Lonza) (120 μmol) and the HDR donor oligonucleotide containing the MEN1-M327I mutation as well as a silent mutation at the protospacer adjacent motif (PAM) site (120 μmol) (sequence:5′-[…]-3′) were added to the RNP complex. For wildtype (WT) control, phosphate buffered saline (PBS) (Gibco™, Fisher Scientific) was added to the resuspended cells. Nucleofection was performed using a 16-well 20 μl Nucleocuvette™ stripe (Lonza) in a 4D-Nucleofector™ X Unit (Lonza) (program FF-100). Cells were incubated overnight in RPMI-1640+10% FCS+1% P/S containing 1 μM Alt-R™ HDR enhancer V2 (Lonza) (or DMSO for WT control). […] Cells were replated in fresh medium+drug every 3 days and viable cells were counted using the LSRFortessa™ (BD Biosciences) flow cytometer. Cumulative cell growth was calculated over 28 days. […]

Assay [4] relates to unedited MV4;11 and OCI-AML3 cells. The assay is described as above. Particulars: 50 nM. The class given is cell-based, human. As for the experimental part: as §3
The test system of assay [5] is Menin-MLL1 target genes and myeloid differentiation programs in MEN1-M327I mutant MV4;11 cells. Briefly: RNA-sequencing, gene expression changes. The class given is cell-based, human. Conditions: 5 μM. The procedure: Total RNA was isolated from cell lines or mouse cell depleted PDX material using the RNeasy™ Mini Kit (QIAGEN). Quality control was performed using RNA-Tape™ (Agilent) and all samples used for sequencing passed QC with a RINe-score greater than 8. Poly(A) mRNA enrichment and library preparation was performed using the NEBNext Poly(A) mRNA Magnetic Isolation Module and NEBNext Ultra II RNA Library Prep kit (New England BioLabs) according to the manufacturer's instructions. Sequencing was done on an Illumina NextSeq500 platform as 37 bp paired end sequencing. Raw Illumina NextSeq BCL files were converted to FASTQ using Illumina bcl2fastq. Reads were aligned to human GRCh38/hg38 genome using STAR 2.7.5. Aligned BAM files were sorted, duplicate reads marked and removed, and deduplicated BAMs indexed using Broad picard tools v2.9.4. Raw per-gene counts were calculated with HTSeq-count (v.0.6.1pl). Differential RNA-seq expression was calculated using the BioConductor DESeq2 package (v1.24,0), using raw unnormalized per-gene counts from deduplicated BAMs. Z-scores for the generation of heatmaps were calculated from regularized gene-counts (from DeSeq2 package).

The test system of assay [6] is MEN1 M327I/M327I MV4;11 cells. Briefly: dose-response assay, viable cell counts by flow cytometry. The class given is cell-based. Conditions: Homo sapiens, 240 h; MV4;11 MEN1 M327I/M327I, 10 d of treatment. As for the experimental part:
MV4;11 and OCI-AML3 cell lines were passaged 24 h prior to nucleofection. The guide RNA (150 μmol) (sequence: 5′-[…]-3′) was added to Alt-R S.p. HiFi Cas9 nuclease (Integrated DNA Technologies) (125 μmol) followed by an incubation at room temperature (RT) for 20 min to allow formation of ribonucleoprotein (RNP) complexes. 2×10^5 cells were sedimented at 200 g for 10 min at RT, washed with PBS and resuspended in the SG Cell Line Nucleofector™ Solution (Lonza). […] Cells were replated in fresh medium+drug every 3 days and viable cells were counted using the LSRFortessa™ (BD Biosciences) flow cytometer. Cumulative cell growth was calculated over 28 days. […]
To determine Menin-inhibitor responses of MOLM13, MV4;11 or OCI-AML3 cell lines expressing MEN1 mutants, 3×10^3 cells were plated per well in a non-tissue culture treated 96-well plate. […] After 6 days, cells were split 1:7 and counts of viable cells in each well were determined after 10 d of treatment by flow cytometry (LSRFortessa™ with High-throughput sampler (HTS), BD Biosciences). Relative cell counts were calculated as % of DMSO control. The average of each triplicate was calculated and the mean of all replicates was plotted. […]

Bounds are passed on as bounds.

As usually defined, the IC50 is the point on the concentration scale where inhibition reaches its midpoint.

Take `CNc1nc(NC2CCN(Cc3ccc4c(cc(C#N)n4CC45CC(NC=O)(C4)C5)c3C)CC2)c2cc(CC(F)(F)F)sc2n1` [MI-3454]: the sensitivity entry in assay [1] and in assay [2] was “reduced sensitivity” throughout.

Turning to `CCN(C(=O)c1cc(F)ccc1Oc1cncnc1N1CC2(CCN(C[C@H]3CC[C@H](NS(=O)(=O)CC)CC3)CC2)C1)C(C)C` [SNDX-5613, revumenib], the cell growth result is “continued growing beyond 28 days” in assay [3] and “stopped dividing shortly after exposure” in assay [4]. Further, the “repression of Menin-MLL1 target genes and induction of myeloid differentiation programs” value in assay [5] is given as “only a partial response”. This molecule also registered an IC50 in assay [6] greater than 1 µM. Besides, the sensitivity entry in assay [1] and in assay [2] was “reduced sensitivity” each time.

For the origin of these results see US20260185163A1, “MEN1 MUTATIONS AND USES THEREOF” (DANA-FARBER CANCER INSTITUTE, INC., priority 2022, published 2026).
